In patent US20260097046A1, “PLASMODIUM FALCIPARUM BLOOD STAGE INHIBITORS” (University of Georgia Research Foundation, Inc., priority 2023, published 2026):

Experiment: Solubility by HPLC assay
Format: physicochemical
Conditions: pH 7.4, HPLC assay
Experimental: Solubility was assessed for selected compounds using an HPLC assay.

Solubility (μM) at pH 7.4 [μM]	Compound
12.8	Cc1ccc(-c2cncc(C(=O)N(C)c3ccc(Cl)cc3)c2)cc1 [APZ-2160, N-(4-chlorophenyl)-N-methyl-5-(p-tolyl)nicotinamide]
19.1	Cc1ccc(N(C)C(=O)c2ncn(-c3ccc(C)cc3)n2)cc1 [APZ-2327, N-methyl-N,1-di-p-tolyl-1H-1,2,4-triazole-3-carboxamide]
